Assays:
Type in all cases: in vivo
[1] = test system: velvetleaf (Abutilon theophrasti); experiment: Test A preemergence; settings: Preemergence, 1000 g ai/ha; 0 is no effect, 100 is complete control
In short: (§1)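 In a loam soil and sand blend, planted seeds got a preemergence directed soil spray, and young plants at the one- to two-leaf stage, 2–10 cm high, got a postemergence application; ~10 d greenhouse hold; injury rated visually, 0 = none, 100 = complete control.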

[2] = test system: wheat (Triticum aestivum); experiment: Test A preemergence; settings: Preemergence, 1000 g ai/ha; 0 is no effect, 100 is complete control
In short: as §1

corn (Zea mays) [3] = experiment: Test A preemergence; settings: Preemergence, 1000 g ai/ha; 0 is no effect, 100 is complete control
In short: as §1

[4] = test system: crabgrass, large (Digitaria sanguinalis); experiment: Test A preemergence; settings: Preemergence, 1000 g ai/ha; 0 is no effect, 100 is complete control
In short: as §1

[5] = test system: barnyardgrass (Echinochloa crus-galli); experiment: Test A preemergence
In short: as §1

[6] = test system: giant foxtail (Setaria faberii); experiment: Test A preemergence
In short: as §1

[7] = test system: morningglory (Ipomoea spp.); experiment: Test A preemergence; settings: Preemergence, 1000 g ai/ha; 0 is no effect, 100 is complete control
In short: as §1

[8] = test system: pigweed (Amaranthus retroflexus); experiment: Test A preemergence
[9] = test system: velvetleaf (Abutilon theophrasti); experiment: Test A postemergence; settings: 1000 g ai/ha, postemergence; 0 to 100 scale, 0 no effect, 100 complete control
In short: as §1

[10] = test system: wheat (Triticum aestivum); experiment: Test A postemergence; settings: postemergence; for Plant response rating, Wheat: 0 to 100 scale, 0 no effect, 100 complete control
In short: as §1

corn (Zea mays) [11] = experiment: Test A postemergence; settings: postemergence; for Plant response rating, Corn: 0 to 100 scale, 0 no effect, 100 complete control
In short: as §1

[12] = test system: crabgrass, large (Digitaria sanguinalis); experiment: Test A postemergence; settings: 1000 g ai/ha, postemergence; 0 to 100 scale, 0 no effect, 100 complete control
In short: as §1

[13] = test system: barnyardgrass (Echinochloa crus-galli); experiment: Test A postemergence; settings: postemergence; for Plant response rating, Barnyardgrass: 0 to 100 scale, 0 no effect, 100 complete control
In short: as §1

[14] = test system: giant foxtail (Setaria faberii); experiment: Test A postemergence; settings: postemergence; for Plant response rating, Foxtail, Giant: 0 to 100 scale, 0 no effect, 100 complete control
In short: as §1

[15] = test system: morningglory (Ipomoea spp.); experiment: Test A postemergence; settings: 1000 g ai/ha, postemergence; 0 to 100 scale, 0 no effect, 100 complete control
In short: as §1

[16] = test system: pigweed (Amaranthus retroflexus); experiment: Test A postemergence; settings: postemergence; for Plant response rating, Pigweed: 0 to 100 scale, 0 no effect, 100 complete control
In short: as §1

rice (Oryra sativa) = experiment: Test B flooded paddy test; settings: Flood, 250 g ai/ha; 0 to 100 scale where 0 is no effect and 100 is complete control; 13 to 15 d
In short: (§2)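 Flooding to 3 cm over soil accompanied treatment, which consisted of adding compound to the standing water around 2-leaf plants; depth was then maintained. Visual assessment versus controls followed at 13 to 15 d (scale 0–100, 0 meaning no effect).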

[17] = test system: barnyardgrass (Echinochloa crus-galli); experiment: Test B flooded paddy test; settings: Flood, 250 g ai/ha; 0 to 100 scale where 0 is no effect and 100 is complete control; 13 to 15 d
In short: as §2

[18] = test system: sedge, umbrella (small-flower umbrella sedge, Cyperus difformis); experiment: Test B flooded paddy test; settings: Flood, 250 g ai/ha; 0 to 100 scale where 0 is no effect and 100 is complete control; 13 to 15 d
In short: as §2

[19] = test system: ducksalad (Heteranthera limosa); experiment: Test B flooded paddy test; settings: Flood, 250 g ai/ha; 0 to 100 scale where 0 is no effect and 100 is complete control; 13 to 15 d
In short: as §2

[20] = test system: ryegrass, Italian (Italian ryegrass, Lolium multiflorum); experiment: Test A preemergence
In short: as §1

Kochia (Kochia scoparia) [21] = experiment: Test A preemergence
In short: as §1

[22] = test system: ragweed (common ragweed, Ambrosia elatior); experiment: Test A preemergence
In short: as §1

[23] = test system: barnyardgrass (Echinochloa crus-galli); experiment: Test C flooded paddy test; settings: Flood, 0 is no effect, 100 is complete control
In short: (§3)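 Test compounds were dosed straight into the flood water of pots holding 2-leaf-stage plants, with water kept 3 cm above the soil. Greenhouse plants were scored visually against controls after 13 to 15 d, from 0 (no effect) to 100 (complete control).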

rice (Oryza sativa) = experiment: Test C flooded paddy test; settings: Flood, 0 is no effect, 100 is complete control
In short: as §3

[24] = test system: sedge, umbrella (small-flower umbrella sedge, Cyperus difformis); experiment: Test C flooded paddy test; settings: Flood, 0 is no effect, 100 is complete control
In short: as §3

[25] = test system: ducksalad (Heteranthera limosa); experiment: Test C flooded paddy test; settings: Flood, 0 is no effect, 100 is complete control
In short: as §3

[26] = test system: ryegrass, Italian (Italian ryegrass, Lolium multiflorum); experiment: Test A postemergence; settings: postemergence
In short: as §1

[27] = test system: blackgrass (Alopecurus myosuroides); experiment: Test A postemergence; settings: postemergence
In short: as §1

Kochia (Kochia scoparia) [28] = experiment: Test A postemergence; settings: postemergence
In short: as §1

[29] = test system: ragweed (common ragweed, Ambrosia elatior); experiment: Test A postemergence; settings: postemergence
In short: as §1

[30] = test system: Galium (catchweed bedstraw, Galium aparine); experiment: Test A postemergence; settings: postemergence
In short: as §1

[31] = Preemergence, 1000 g ai/ha, 0 is no effect, 100 is complete control
[32] = 125 g ai/ha, preemergence, 0 to 100 scale (0 no effect, 100 complete control)
[33] = Preemergence, 500 g ai/ha, visual injury approx. 10 d
[34] = 125 g ai/ha, visual injury rating on 0 to 100 scale (0 no effect, 100 complete control), approx. 10 d
[35] = 500 g ai/ha, 0 to 100 scale, 0 no effect, 100 complete control

N#CCN(C(=O)C1C(=O)NCC1c1ccc(F)c(F)c1)c1ccccc1[N+](=O)[O-] (centres unmarked) [Compound 713]
Velvetleaf plant response rating (0 to 100 scale) [1]: 0 | Wheat plant response rating (0 to 100 scale) [2]: 0 | Corn plant response rating (0 to 100 scale) (corn (Zea mays) [3]): 0 | Crabgrass, Large plant response rating (0 to 100 scale) [4]: 80 | Barnyardgrass plant response rating (0 to 100 scale) [5, 31]: 0 | Foxtail, Giant plant response rating (0 to 100 scale) [6, 31]: 40 | Morningglory plant response rating (0 to 100 scale) [7]: 0 | Pigweed plant response rating (0 to 100 scale) [8, 31]: 0 | Plant response rating, Velvetleaf [9]: 0 | Plant response rating, Wheat ([10]; 1000 g ai/ha): 0 | Plant response rating, Corn (corn (Zea mays) [11]; 1000 g ai/ha): 0 | Plant response rating, Crabgrass, Large [12]: 0 | Plant response rating, Barnyardgrass ([13]; 1000 g ai/ha): 0 | Plant response rating, Foxtail, Giant ([14]; 1000 g ai/ha): 0 | Plant response rating, Morningglory [15]: 0 | Plant response rating, Pigweed ([16]; 1000 g ai/ha): 0

O=C1NCC(c2ccc(F)cc2F)C1C(=O)Nc1cccc(F)c1F (centres unmarked) [Compound 455]
Plant response rating, Rice (rice (Oryra sativa)): 0 | Plant response rating, Barnyardgrass [17]: 75 | Plant response rating, Sedge, Umbrella [18]: 0 | Plant response rating, Ducksalad [19]: 100 | Plant response rating, Ryegrass, Italian [20, 32]: 0 | Ryegrass, Italian plant response rating (0 to 100 scale, 0 is no effect, 100 is complete control) [20, 33]: 0 | Plant response rating, Barnyardgrass [5, 32]: 70 | Barnyardgrass plant response rating (0 to 100 scale, 0 is no effect, 100 is complete control) [5, 33]: 90 | Plant response rating, Foxtail, Giant [6, 32]: 80 | Foxtail, Giant plant response rating (0 to 100 scale, 0 is no effect, 100 is complete control) [6, 33]: 90 | Plant response rating, Kochia (Kochia (Kochia scoparia) [21]; [32]): 20 | Kochia plant response rating (0 to 100 scale, 0 is no effect, 100 is complete control) (Kochia (Kochia scoparia) [21]; [33]): 50 | Plant response rating, Ragweed [22, 32]: 0 | Ragweed plant response rating (0 to 100 scale, 0 is no effect, 100 is complete control) [22, 33]: 0 | Plant response rating, Pigweed [8, 32]: 0 | Pigweed plant response rating (0 to 100 scale, 0 is no effect, 100 is complete control) [8, 33]: 50 | Plant response rating (scale of 0 to 100), Barnyardgrass ([23]; 31 g ai/ha): 0 | Plant response rating (scale of 0 to 100), Barnyardgrass ([23]; 62 g ai/ha): 0 | Plant response rating (scale of 0 to 100), Barnyardgrass ([23]; 125 g ai/ha): 0 | Plant response rating (scale of 0 to 100), Barnyardgrass ([23]; 250 g ai/ha): 50 | Plant response rating (scale of 0 to 100), Rice (rice (Oryza sativa); 31 g ai/ha): 0 | Plant response rating (scale of 0 to 100), Rice (rice (Oryza sativa); 62 g ai/ha): 0 | Plant response rating (scale of 0 to 100), Rice (rice (Oryza sativa); 125 g ai/ha): 0 | Plant response rating (scale of 0 to 100), Rice (rice (Oryza sativa); 250 g ai/ha): 0 | Plant response rating (scale of 0 to 100), Sedge, Umbrella ([24]; 31 g ai/ha): 0 | Plant response rating (scale of 0 to 100), Sedge, Umbrella ([24]; 62 g ai/ha): 0 | Plant response rating (scale of 0 to 100), Sedge, Umbrella ([24]; 125 g ai/ha): 0 | Plant response rating (scale of 0 to 100), Sedge, Umbrella ([24]; 250 g ai/ha): 0 | Plant response rating (scale of 0 to 100), Ducksalad ([25]; 31 g ai/ha): 0 | Plant response rating (scale of 0 to 100), Ducksalad ([25]; 62 g ai/ha): 40 | Plant response rating (scale of 0 to 100), Ducksalad ([25]; 125 g ai/ha): 80 | Plant response rating (scale of 0 to 100), Ducksalad ([25]; 250 g ai/ha): 100 | Wheat plant response rating [10, 34]: 0 | Plant response rating, Wheat ([10]; 500 g ai/ha): 30 | Ryegrass, Italian plant response rating [26, 34]: 0 | Plant response rating, Ryegrass, Italian [26, 35]: 0 | Corn plant response rating (corn (Zea mays) [11]; [34]): 0 | Plant response rating, Corn (corn (Zea mays) [11]; 500 g ai/ha): 0 | Barnyardgrass plant response rating [13, 34]: 70 | Plant response rating, Barnyardgrass ([13]; 500 g ai/ha): 80 | Foxtail, Giant plant response rating [14, 34]: 70 | Plant response rating, Foxtail, Giant ([14]; 500 g ai/ha): 80 | Blackgrass plant response rating [27, 34]: 0 | Plant response rating, Blackgrass [27, 35]: 0 | Kochia plant response rating (Kochia (Kochia scoparia) [28]; [34]): 60 | Plant response rating, Kochia (Kochia (Kochia scoparia) [28]; [35]): 70 | Ragweed plant response rating [29, 34]: 0 | Plant response rating, Ragweed [29, 35]: 0 | Pigweed plant response rating [16, 34]: 50 | Plant response rating, Pigweed ([16]; 500 g ai/ha): 60 | Galium plant response rating [30, 34]: 30 | Plant response rating, Galium [30, 35]: 70

— patent publication US12077503B2, “Substituted cyclic amides and their use as herbicides” (FMC CORPORATION, priority 2015, dated 2024)
